Patent US11913075B2, “Methods and compositions for detecting and modulating an immunotherapy resistance gene signature in cancer” (The Broad Institute, Inc., priority 2017, dated 2024)

Tests used:
[1] = tested on: IGR37 melanoma cell line (RB-sufficient); assay: scRNA-seq of IGR37 melanoma cell line before and after abemaciclib for 1 week; type: cell-based; settings: IGR37, post-treatment with abemaciclib; 10% before treatment
Description: (§1) Applicants performed scRNA-seq on these cell lines before and after treatment with abemaciclib for 1 week (FIG. 41).
(§2) To test this hypothesis, Applicants studied the effect of abemaciclib on the immune resistance program in melanoma cell lines. […] Applicants profiled each cell line with scRNA-seq before and after treatment with abemaciclib for 1 week (FIGS. 49D-E), analyzing over 23,000 cells in these and follow-up conditions (below).
(§3) For droplet-based scRNA-seq, experiments were performed on the 10× Genomics Chromium platform, with the Chromium Single Cell 3′ Library & Gel Bead Kit v2 and Chromium Single Cell 3′ Chip kit v2 according to the manufacturer's instructions in the Chromium Single Cell 3′ Reagents Kits V2 User Guide. Briefly, 6,000 cells were re suspended in PBS supplemented with 0.04% BSA and loaded to each channel. The cells were then partitioned into Gel Beads in Emulsion in the GemCode instrument, where cell lysis and barcoded reverse transcription of RNA occurred, followed by amplification, shearing and 5′ adaptor and sample index attachment.

[2] = tested on: UACC257 melanoma cell line (RB-sufficient); assay: scRNA-seq of UACC257 melanoma cell line before and after abemaciclib for 1 week; type: cell-based; settings: UACC257, post treatment with abemaciclib; 10% prior to treatment
Description: as §1, §2, §3

Compound: CCN1CCN(Cc2ccc(Nc3ncc(F)c(-c4cc(F)c5nc(C)n(C(C)C)c5c4)n3)nc2)CC1 [abemaciclib]
- cells with exceptionally strong expression of the uICR signature / immune resistance program ("immune resistant" cells) [1]: 2%
- cells with exceptionally strong expression of the immune resistance program ("immune resistant" cells) [2]: 1%
